Experimental data from US7943606B2, “Compositions and methods to control abnormal cell growth” (CanCure Laboratories, LLC, priority 2005, dated 2011).
Like-named read-outs stand apart in the source and are kept apart here.

Tests used:
MRC-5 cells = assay: Viability of MRC-5 normal lung fibroblasts (MTT assay); type: cell-based; details: Homo sapiens, MRC5; 10,000 cells per well (25-35% confluent), 72 hours, MTT; read-out: IC50 values, Antiproliferative, MRC-5
Procedure: (§1) To quantify cell death, around the time when significant and characteristic morphological changes took place, cells were pulse-labeled for 10 minutes with [^3H]thymidine to measure DNA activity as described elsewhere [Tomono, M. and Kiss, Z. (1995), “Ethanol enhances the stimulatory effects of insulin and insulin-like growth factor-I on DNA synthesis in NIH 3T3 fibroblasts,” Biochem. Biophys. Res. Commun. 208, 63-67]. Also, cells were collected as suspensions using trypsin, an established method in cell biology, followed by re-plating of cells in fresh tissue culture medium. If no viable cells were obtained after one week in culture, it meant that the cells at the time of re-plating were dead. Survival values obtained with untreated cells were considered 100%. For the determination of relative number of viable cells after treatments, in most cases the MTT assay was used. This calorimetric assay is based on the ability of living cells, but not dead cells, to reduce 3-(4,5-dimethyl thiazol-2-yl)-2,5-diphenyltetrazolium bromide [Carmichael, J, De Graff, W. G., Gazdar, A. F., Minna, J. D. and Mitchell, J. B. (1987), “Evaluation of tetrazolium-based semi-automated calorimetric assay: Assessment of chemosensitivity testing,” Cancer Res. 47, 936-942]. For this assay, cells were plated in 96-well plates, and the MTT assay was performed both in untreated and treated cell cultures. The MTT assay also was performed at the start of treatments to allow assessment of proliferation rates in the control and treated cell cultures.
(§2) The MRC-5 cell line is derived from normal lung tissue of a […] fetus. MRC-5 cells were maintained and treated in Eagles Medium with Hanks' BSS containing 10% fetal bovine serum. The T47D cells were maintained and treated in RPMI 1640 medium supplemented with 0.2 IU bovine insulin and 10% fetal bovine serum. The CaOV-3 human ovarian cancer cells were cultured in Dulbecco's modified Eagle's medium containing 10% fetal bovine serum. The cells were seeded in 96-well plates either at 10,000 cells per well or 30,000 cells per well to examine the antiproliferative and cytotoxic effects of various CC compounds, respectively. The cells were incubated for 24 hours, then the medium was changed followed by the treatments of cultures 2 hours after the medium change. At this point, cell cultures seeded at 10,000 cells per well and 30,000 cells per well were 25-35% and 80-90% confluent, respectively. Incubations were continued for 72 hours followed by the MTT assay. The data, shown in TABLE 2, indicate the inhibitory concentrations of CC compounds (IC50) required for 50% decrease in the number of viable cells. These numbers are calculated from the mean of 4 incubations in one experiment (the experiment was repeated once with similar results).

[1] = as above; type: cell-based; details: human
Procedure: as §1, §2

T47D cells = assay: Viability of T47D breast cancer cells; type: cell-based, human; details: Homo sapiens, T47D, 72 hours, MTT
Procedure: as §1
About 40% confluent cultures of T47D cells, cultured in 12-well plates in RPMI 1640 medium supplemented with 0.2 IU bovine insulin and 10% FBS, were either untreated (FIG. 4A), or were treated with 100 μM CCDTHT (CCompound3) for 72 hours (FIG. 4B).
(§3) NIH3T3, T47D, A-431, HT-29, and MEL-28 cells were cultured as indicated earlier. CaOV-3 human ovarian cancer cells were cultured in DMEM containing 10% FBS. ZR-75-1 human estrogen receptor-positive breast cancer cells were maintained in RPMI 1640 medium supplemented with 10% FBS. HTB-157 human fetal fibroblasts, MEL-24 human malignant melanoma cells, Hep G2 human hepatoblastoma cells, and CaCO-2 human colon adenocarcinoma cells were maintained in Eagles's MEM containing 10% FBS. MB-231 human estrogen receptor-negative breast cancer cells were maintained in Leibovitz's L-15 medium supplemented with 10% FBS. Cells were seeded into 96-well plates and treated at ˜70-90% confluency. Two hours prior to treatments the medium was changed for fresh 10% serum medium, and then the cells were incubated for 10 days in the absence (□) or presence of 50 μM CCDTHT ? or 100 μM CCDTHT (▪). The medium was changed and the cells were re-treated on days 3 and 6. The MTT assay was used to determine cell viability on day 10. The data, shown in FIG. 6, are the mean±std. dev. of 8 incubations in one experiment.
as §2, with “respectively.” for “respectively. Incubations were continued for 72 hours followed by the MTT assay. The data, shown in TABLE 2, indicate the inhibitory concentrations of CC compounds (IC50) required for 50% decrease in the number of viable cells. These numbers are calculated from the mean of 4 incubations in one experiment (the experiment was repeated once with similar results).”

CaOV-3 cells = assay: Viability of CaOV-3 ovarian cancer cells (MTT assay); type: cell-based, human; details: Homo sapiens, Caov-3, 72 hours, MTT
Procedure: as §1
as §3, with “experiment. (The experiment was repeated twice with similar results).” for “experiment.”
as §2, with “results). […]” for “results).”

MCF-7 cells = assay: Viability of MCF-7 breast cancer cells; type: cell-based, human; details: 2 mM Etn + 100 μM CCDTHT, 72 hours, MTT
Procedure: as §1
About 50% confluent cultures of MCF-7 cells, cultured in 12-well plates in Dulbecco's modified Eagle's medium (DMEM) supplemented with 10% FBS, were either untreated (FIG. 3A), or were treated with 100 μM CCDTHT (CCompound3) for 72 hours (FIG. 3B). […] This experiment was repeated three times with similar results. In some experiments, cells from the CCDTHT-treated cultures were seeded into 96-well plates, and the MTT assay was performed 96 hours later to test for viable cells.
The NIH 3T3 (normal) mouse fibroblast, A431 human epidermoid adenocarcinoma, and MCF-7 human breast cancer cells were cultured in DMEM medium containing 10% FBS. The MEL-28 human melanoma cells were cultured in MEM medium containing 10% FBS. The HT-29 human colon adenocarcinoma cells were cultured in McCoy's 5a medium containing 10% FBS. The A549 human lung carcinoma cells were maintained in Ham's F12K medium containing 10% FBS. Cells were seeded into 96-well plates and treated at ˜70-90% confluency. Two hours before treatments the medium was changed for fresh 10% serum medium, and then the cells were incubated for 72 hours in the presence of 0-200 μM of CCompound1 (●) or CCompound3 (CCDTHT) (▴), as indicated. The MTT assay was used to determine cell viability after treatments. The values, shown in FIGS. 5A-5F and expressed as percent decrease in viability compared to the untreated control cells, are the mean±std. dev. of 8 incubations in one experiment. Similar results were obtained in another experiment.
NIH 3T3, AN3CA, HT-29, MEL-28, and MCF-7 cells were cultured as described earlier. Cells were seeded into 96-well plates; when cells were ˜80-90% confluent, the medium was changed for fresh 10% serum-containing medium, followed by incubations for 72 hours in the absence (□) or presence of 100 μM CCDTHT ? , 2 mM ethanolamine (Etn) ? , or 100 μM CCDTHT+2 mM Etn (▪). The MTT assay was used to determine cell viability. […]

[2] = 10,000 cells per well (25-35% confluent), read-out: IC50 values, Antiproliferative, T47D
[3] = 30,000 cells per well (80-90% confluent), read-out: IC50 values, Cytotoxic, T47D
[4] = 10,000 cells per well (25-35% confluent), read-out: IC50 values, Antiproliferative, CaOV-3
[5] = 30,000 cells per well (80-90% confluent), read-out: IC50 values, Cytotoxic, CaOV-3
[6] = MRC-5 normal lung fibroblasts, 30,000 cells per well (80-90% confluent), 72 hours, MTT, read-out: IC50 values, Cytotoxic, MRC-5

SMILES | IC50 (MRC-5 cells) [µM] | IC50 at 72 h [1] [µM] | IC50 (T47D cells; [2]) [µM] | IC50 (T47D cells; [3]) [µM] | IC50 (CaOV-3 cells; [4]) [µM] | IC50 (CaOV-3 cells; [5]) [µM] | IC50 at 72 h [1, 6] [µM] | effect of Etn on CCDTHT-induced reduction in cell viability, MCF-7 (MCF-7 cells)
C=CC[N+](C)(C)CC/C=C1/c2ccccc2Sc2ccc(C)cc21 [CCcompound24, N,N-Dimethyl-N-allyl-3-(2-methyl-9H-thioxanthen-9-ylidene)-propane-1-aminium bromide] | 113 | 207 | 56 | 59 | 69 | 29 | – | –
CC[N+](CC)(CC)CC/C=C1/c2ccccc2Sc2ccc(C)cc21 [CCcompound25, N,N,N-triethyl-3-(2-methyl-9H-thioxanthen-9-ylidene)-propane-1-aminium-iodide] | 118 | – | 18 | 39 | 47 | 66 | 123 | –
CC[N+](C)(CC)CC/C=C1/c2ccccc2Sc2ccc(C)cc21 [CCcompound23, N,N-Diethyl-N-methyl-3-(2-methyl-9H-thioxanthen-9-ylidene)-propane-1-aminium iodide] | 139 | – | 48 | 38 | 14 | 32 | 163 | –
NCCO [Etn, ethanolamine, reference compound] | – | – | – | – | – | – | – | clearly prevented
CC[N+](C)(C)CC/C=C1/c2ccccc2Sc2ccc(C)cc21 [CCcompound22, N,N-Dimethyl-N-ethyl-3-(2-methyl-9H-thioxanthen-9-ylidene)-propane-1-aminium iodide] | 140 | – | 65 | 65 | 61 | 36 | 215 | –
C=CC[N+](CC)(CC)CC/C=C1/c2ccccc2Sc2ccc(C)cc21.[Br-] [CCcompound26, N,N-diethyl-N-allyl-3-(2-methyl-9H-thioxanthen-9-ylidene)-propane-1-aminium-bromide] | 86 | 98 | 11 | 8 | 57 | 59 | – | –
Cc1ccc2c(c1)/C(=C\CC[N+](C)(C)C)c1ccccc1S2 [CCcompound21, N,N,N-trimethyl-3-(2-methyl-9H-thioxanthen-9-ylidene)-propane-1-aminium iodide] | 113 | – | 76 | 59 | 32 | 29 | 164 | –
